Measurements taken from US11261152B2, “Inhibitors of the N-terminal domain of the androgen receptor” (The Regents of the University of California, priority 2017, dated 2022).
Entries after “also recorded” stand apart in the source; their conditions may differ.

How the values were obtained:
c-Jun TAD = experiment: JUN-TAD fused to GAL4 DNA-binding domain reporter assay; format: cell-based; conditions: Table 3 grade HIGH/MED/LOW, grades not defined
From the text: (§1) The inhibitory activity of JN018 was further evaluated in experiments in which the AR transactivation domain (TAD) or the c-Jun or CREB TAD was fused to the heterologous GAL4 DNA-binding domain and thereby drive reporter gene expression governed by the GAL4 response element (FIG. 1).

[1] = test system: androgen response element (ARE); experiment: ARE reporter assay (tandem copies of the androgen response element); format: cell-based; conditions: for ARE: Table 3 grade HIGH/MED/LOW, grades not defined; for reporter activity driven by the ARE: result in words
Protocol: FIG. 11A. Effects of JN series compounds in reporter assays for androgen response element. Experiments were performed in triplicate and results are means+/−s.d.

[2] = test system: AR positive PCa cells (LNCaP, LNCaP-AR, CWR22, 22Rv1, LAPC4); experiment: MTT / CellTiter GLO cell viability, AR positive prostate cancer cells; conditions: for MTT AR-Pos: Table 3 grade HIGH/MED/LOW, grades not defined; for growth inhibitory / suppressive effects as compared to JN018 / growth of AR expressing prostate cancer cells: result in words
Protocol: (§3) The results are means of quadruplicate expts±s.d. Top panel: CellTiter GLO luminescent bioassay (arbitrary units on vertical axis). Bottom panel: classical MTT assay ([blue/yellow]=[viable/non-viable]).
(§4) Experiments were performed in quadruplicate; results are means+/−s.d.
Results were normalized to that of vehicle control. Experiments were performed in quadruplicate; results are means+/−s.d.
Next, the effects of the compounds on growth of prostate cancer cell lines in vitro were evaluated.

[3] = target: T1, AR transactivation domain (TAD) (Homo sapiens, UniProt P10275); experiment: AR-TAD fused to GAL4 DNA-binding domain reporter assay; format: cell-based; conditions: Table 3 grade HIGH/MED/LOW, grades not defined
T1 construct: expressed in transfected cells
T1 sequence (P10275 1-559 limits assumed): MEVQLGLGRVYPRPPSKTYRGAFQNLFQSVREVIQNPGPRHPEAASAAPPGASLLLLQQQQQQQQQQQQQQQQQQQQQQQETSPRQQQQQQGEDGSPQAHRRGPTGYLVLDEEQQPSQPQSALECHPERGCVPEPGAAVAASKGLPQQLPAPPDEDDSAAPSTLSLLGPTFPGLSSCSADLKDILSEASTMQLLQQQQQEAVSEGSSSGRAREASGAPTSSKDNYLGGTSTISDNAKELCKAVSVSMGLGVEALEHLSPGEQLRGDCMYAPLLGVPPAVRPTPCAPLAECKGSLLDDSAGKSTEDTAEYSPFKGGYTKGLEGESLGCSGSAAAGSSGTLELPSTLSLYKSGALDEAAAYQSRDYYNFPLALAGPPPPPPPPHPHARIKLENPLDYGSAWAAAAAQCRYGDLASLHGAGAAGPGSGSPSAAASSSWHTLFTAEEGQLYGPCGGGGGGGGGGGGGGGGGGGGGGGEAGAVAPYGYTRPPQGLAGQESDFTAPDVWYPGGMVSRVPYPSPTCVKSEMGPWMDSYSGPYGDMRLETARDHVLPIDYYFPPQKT
From the text: as §1

CREB TAD = experiment: CREB-TAD fused to GAL4 DNA-binding domain reporter assay; format: cell-based; conditions: Table 3 grade HIGH/MED/LOW, grades not defined
From the text: as §1

[4] = test system: AR transcriptional activity (MMTV reporter); experiment: MMTV reporter assay; format: cell-based; conditions: for MMTV: Table 3 grade HIGH/MED/LOW, grades not defined; for reporter activity driven by the MMTV promoter: result in words
[5] = test system: glucocorticoid response element (GRE) / glucocorticoid receptor; experiment: GRE reporter assay; format: cell-based; conditions: Table 3 grade HIGH/MED/LOW, grades not defined
Protocol: FIG. 11B. Effects of JN series compounds in reporter assays for glucocorticoid response element. Experiments were performed in triplicate and results are means+/−s.d.

[6] = test system: AR-null PCa cells (DU145, PC3); experiment: MTT / CellTiter GLO cell viability, AR-null prostate cancer cells; conditions: for MTT AR-Neg: Table 3 grade HIGH/MED/LOW, grades not defined; for off target effects on AR-null prostate cancer cell lines compared to JN018 / growth of AR null prostate cancer cells: result in words
Protocol: as §3, §4
AR null PC3 cells were exposed to the indicated compounds for 6 days; cell viability was measured by MTT assay. Results were normalized to that of vehicle control. Experiments were performed in quadruplicate; results are means+/−s.d.
For each compound and concentration in the figure, the bars represent relative cell viability of 22Rv1, LAPC4, and DU145, from left to right.
For each compound and concentration in the figure, the bars represent relative cell viability of CWR22 and PC3, from left to right.

[7] = test system: AR transcriptional activity (PSA promoter/enhancer reporter); experiment: PSA promoter/enhancer reporter assay; format: cell-based; conditions: result in words
From the text: (§2) Additional compounds have been generated with sequential numbering through JN136. In vitro biologic activity and biochemical activity/selectivity for AR inhibition have been tested for JN104-133.

[8] = test system: non-AR-dependent reporter systems; experiment: Non-AR-dependent reporter systems; format: cell-based; conditions: result in words
From the text: as §2

[9] = test system: LNCaP-AR castration resistant cell line; experiment: LNCaP-AR castration resistant xenograft in castrated nude mice; format: in vivo; conditions: for tumor growth of LNCaP-AR model in castrated nude mice: oral gavage once per day, five days per week (Mon-Fri); for signs of toxicity in mice: xenograft study, oral gavage Mon-Fri
Protocol: FIG. 12A. In vivo effects of JN series compounds.
FIG. 12B. In vivo effects of JN series compounds.
Selected compounds were tested in a mouse xenograft model. In this model, the LNCaP-AR castration resistant cell line was grown subcutaneously in the flanks of castrated nude mice. When tumors reached 150-200 mm^3, mice were administered selected JN series compounds, vehicle or positive control by oral gavage once per day for five days per week (Mon-Fri). […].

[10] = test system: AP1 mediated reporter activity; experiment: AP1 reporter assay; format: cell-based; conditions: Table 3 grade HIGH/MED/LOW, grades not defined
A549 = experiment: Growth of lung cancer cells; format: cell-based; conditions: not shown
From the text: Further modifications of R1 yielded compounds with a spectrum of growth suppressive effects.

SMILES | JUN-TAD (c-Jun TAD) | ARE [1] | MTT AR-Pos [2] | AR-TAD [3] | CREB-TAD (CREB TAD) | MMTV [4] | GRE [5] | MTT AR-Neg [6] | further results
Cc1ccc(/C=C(\CN(C)Cc2ccccc2)C(=O)c2ccccc2)cc1 [JN043] | LOW | HIGH | HIGH | HIGH | MED | HIGH | HIGH | MED | –
C=C(CN(C)Cc1ccccc1)C(=O)/C(=C/c1cccc(Cl)c1)c1ccccc1.Cl [JN060] | – | HIGH | HIGH | – | – | HIGH | HIGH | HIGH | –
CN(C/C(=C\c1ccc(Br)cc1)C(=O)c1ccccc1)Cc1ccccc1 [JN022] | HIGH | LOW | HIGH | HIGH | LOW | HIGH | – | HIGH | –
C=C(C)C(=O)NC(=O)/C(=C/c1ccc(Cl)cc1)c1ccc(F)cc1F [JN118] | – | – | – | – | – | – | – | – | AR transcriptional activity in PSA promoter/enhancer reporter [7]: excellent inhibitory effects; reporter activity driven by the ARE [1]: excellent inhibitory effects; growth inhibitory / suppressive effects as compared to JN018 [2]: improved in vitro growth inhibitory effects; effects on non-AR-dependent reporter systems [8]: minimal effects; reporter activity driven by the MMTV promoter [4]: excellent inhibitory effects; off target effects on AR-null prostate cancer cell lines compared to JN018 [6]: reduced off target effects
O=C(/C=C/c1ccc(F)cc1)C(=Cc1ccc(F)cc1)c1ccccc1 [JN051] | – | HIGH | HIGH | – | – | HIGH | HIGH | HIGH | –
CN(C)C/C(=C\c1ccc(Cl)cc1)C(=O)c1ccccc1 [JN024] | HIGH | HIGH | HIGH | HIGH | HIGH | HIGH | – | MED | –
CN(C/C(=C\c1ccc(Cl)cc1)C(=O)c1ccc(Cl)cc1)Cc1ccccc1 [JN050] | LOW | HIGH | HIGH | HIGH | MED | HIGH | HIGH | MED | –
C=C(CN(C)Cc1ccccc1)C(=O)/C(=C/c1ccc(Cl)cc1)c1ccc(F)cc1.Cl [JN090] | – | – | – | – | – | – | – | – | tumor growth of LNCaP-AR model in castrated nude mice [9]: inhibit the growth; also recorded: demonstrated anti-tumor effects; signs of toxicity in mice [9]: limited or no outward signs of toxicity
CNC(=O)c1ccc(N2C(=S)N(c3ccc(C#N)c(C(F)(F)F)c3)C(=O)C2(C)C)cc1F [MDV 3100, enzalutamide, reference compound] | LOW | HIGH | HIGH | – | LOW | – | LOW | LOW | AP1 [10]: HIGH
C=CC(O)/C(=C\c1ccc(Cl)cc1)c1ccccc1 (stereo not drawn) [JN003, (Z)-1-(4-Chlorophenyl)-2-phenylpenta-1,4-dien-3-ol] | LOW | – | LOW | HIGH | LOW | HIGH | LOW | LOW | –
CN(C/C(=C\c1cccc(Cl)c1)C(=O)c1ccccc1)Cc1ccccc1 [JN048] | LOW | HIGH | HIGH | HIGH | LOW | HIGH | LOW | LOW | –
CN(C/C(=C\c1ccc(C(F)(F)F)cc1)C(=O)c1ccccc1)Cc1ccccc1 [JN044] | LOW | HIGH | HIGH | HIGH | MED | MED | HIGH | MED | –
CN(C/C(=C\c1ccc(Cl)cc1)C(=O)c1ccccc1)Cc1ccccc1 [JN017, (E)-2-((Benzyl(methyl)amino)methyl)-3-(4-chlorophenyl)-1-phenylprop-2-en-1-one] | LOW | LOW | HIGH | HIGH | LOW | LOW | – | MED | –
C=C(C)C(=O)NC(=O)/C(=C/c1ccc(C(F)(F)F)cc1)c1ccccc1 [JN121] | – | – | – | – | – | – | – | – | AR transcriptional activity in PSA promoter/enhancer reporter [7]: excellent inhibitory effects; reporter activity driven by the ARE [1]: excellent inhibitory effects; growth inhibitory / suppressive effects as compared to JN018 [2]: improved in vitro growth inhibitory effects; effects on non-AR-dependent reporter systems [8]: minimal effects; tumor growth of LNCaP-AR model in castrated nude mice [9]: inhibit the growth; also recorded: demonstrated anti-tumor effects; signs of toxicity in mice [9]: limited or no outward signs of toxicity; reporter activity driven by the MMTV promoter [4]: excellent inhibitory effects; off target effects on AR-null prostate cancer cell lines compared to JN018 [6]: reduced off target effects
C=C(C)C(=O)NC(=O)/C(=C/c1ccc(Cl)cc1)c1ccc(F)cc1 [JN103] | – | – | – | – | – | – | – | – | reporter activity driven by the ARE [1]: inhibited reporter activity; growth inhibitory / suppressive effects as compared to JN018 [2]: improved growth suppressive effects; growth of AR expressing prostate cancer cells [2]: suppressed growth; tumor growth of LNCaP-AR model in castrated nude mice [9]: inhibit the growth; also recorded: demonstrated anti-tumor effects; signs of toxicity in mice [9]: limited or no outward signs of toxicity; growth of lung cancer cells (A549) (A549): did not influence growth; growth of AR null prostate cancer cells [6]: did not influence growth
C=C(C)C(=O)NC(=O)/C(=C/c1ccc(Cl)cc1)c1ccccc1 [JN102, (E)-3-(4-Chlorophenyl)-N-methacryloyl-2-phenylacrylamide] | – | – | – | – | – | – | – | – | reporter activity driven by the ARE [1]: inhibited reporter activity; growth inhibitory / suppressive effects as compared to JN018 [2]: improved growth suppressive effects; growth of AR expressing prostate cancer cells [2]: suppressed growth; growth of lung cancer cells (A549) (A549): did not influence growth; growth of AR null prostate cancer cells [6]: did not influence growth
